Measurements as given in paper PMC10035389, “Safety, Tolerability, and Pharmacokinetics of TAK-931, a Cell Division Cycle 7 Inhibitor, in Patients with Advanced Solid Tumors: A Phase I First-in-Human Study” (Cancer Research Communications, 2022).

Tested on: patients with advanced solid tumors
Experiment: Safety and tolerability (adverse events, NCI CTCAE v4.03), phase I dose-escalation study
Type: in vivo, human
Excerpt: This was a phase I, open-label, dose-escalation study of single-agent TAK-931. Dose escalation of TAK-931 was cohort based with an adaptive design using Bayesian logistic regression modeling (BLRM) with pharmacokinetic guidance. BLRM also guided MTD estimation from the second dose. Patients were enrolled in one of four dosing schedules (A, B, D, or E; Supplementary Fig. S1) to receive TAK-931. Two additional schedules were planned (C and F) but no patients were enrolled. Schedule A included an initial accelerated escalation phase. TAK-931 was administered once daily for 14 days in 21-day cycles starting at 30 mg, which doubled until a cycle 1 dose-limiting toxicity (DLT) was observed, when 2 patients experienced grade ≥2 treatment-related toxicity, or when maximum geometric mean plasma concentration (Cmax) for the cohort reached or exceeded 800 ng/mL [threshold for off-target adverse effects (hypotension) in animal toxicology studies]; then dose escalation transitioned to modified Fibonacci escalation steps. In schedule B (based on experience with schedule A), patients received TAK-931 once daily or twice daily for 7 days on, 7 days off in a 28-day cycle starting at 60 mg. In schedule D, patients received TAK-931 once daily starting at 20 mg in 21-day cycles; BLRM was not applied but further adjustments were dependent on observed safety, pharmacokinetics, and pharmacodynamics. In schedule E, patients received TAK-931 once daily for 2 days on, 5 days off starting at 100 mg in 21-day cycles. A safety expansion was permitted once MTD had been determined. Prophylactic growth factors were permitted in all schedules to manage severe and/or febrile neutropenia. TAK-931 treatment continued until unacceptable toxicity, disease progression, or patient withdrawal.
DLTs included: cycle 1 grade ≥3 hematologic and non-hematologic events or grade 2 non-hematologic events considered by the investigator to be TAK-931-related, grade 2 ejection fraction decrease, >2 weeks delay in initiating cycle 2 (1 week for schedules D and E), and >50% TAK-931 dose reduction in cycle 1 due to treatment-related adverse events (AEs; see Supplementary Materials and Methods for full DLT criteria). Toxicity was evaluated by NCI Common Terminology Criteria for Adverse Events (version 4.03). Tumor response was measured using the RECIST (version 1.1) ([16]). Serial blood samples for pharmacokinetic analysis were collected during cycle 1 on days 1 and 7 (schedule B), 1 and 8 (schedules A and D), or 1 and 9 (schedule E). Pharmacokinetic parameters were estimated from concentration–time profiles using noncompartmental methods with WinNonlin® Phoenix™ version 8.1 (Certara, Princeton, NJ). pMCM2 was detected semiquantitatively by IHC of histologic sections of formalin-fixed, paraffin-embedded skin and tumor biopsies using anti-pMCM2 (3378-1, Epitomics Inc.; ref. [15]). Quantitative image analysis determined pMCM2 levels as “histologic score nuclei (H-score).” Skin punch biopsies (2–4 mm) were obtained during screening or predose on cycle 1, day 1 and for patients in schedules A, B, and D, postdose on any drug dosing day after 3 consecutive dosing days in cycle 1. A postdose skin biopsy was obtained on day 9 in schedule E. Fresh tumor biopsy pairs were collected predose and postdose on any dosing day after the completion of 3 consecutive dosing days in cycle 1 from patients who received doses considered to have biological effect.
The safety population included patients who received ≥1 dose of TAK-931. The pharmacodynamic-evaluable population comprised patients from the safety population with a baseline and ≥1 additional postbaseline biopsy sample that was suitable for pMCM2 analysis. The pharmacokinetic-evaluable population included patients with sufficient dosing and TAK-931 concentration–time data to estimate pharmacokinetic parameters. […]

[1] = Schedule D (continuous once daily) n = 18
[2] = Schedule E (2 days on, 5 days off) n = 13
[3] = all schedules, N = 80, all grade 1/2

For `Cc1[nH]ncc1-c1cc2nc([C@@H]3CC4CCN3CC4)[nH]c(=O)c2s1` [TAK-931, simurosertib], the “Rash popular, AE any grade” value [1] was 2 (11) n (%), the “Stomatitis, AE any grade” value [1] was 0 (0) n (%) and the “Thrombocytopenia, AE any grade” value [1] was 0 (0) n (%). For the same molecule, the “Tumor pain, AE any grade” value [1] was 1 (6) n (%), the “Vomiting, AE any grade” value [1] was 2 (11) n (%) and the “White blood cell count decreased, AE any grade” value [1] was 7 (39) n (%). The “White blood cell count decreased, grade ≥3 AE” value [1] was 2 (11) n %, the “Abdominal pain, AE any grade” value [2] was 0 (0) n (%) and the “Alopecia, AE any grade” value [2] was 4 (31) n (%). For the same molecule, the “Anemia, AE any grade” value [2] was 6 (46) n (%), the “Anemia, grade ≥3 AE” value [2] was 5 (38) n % and the “Arthralgia, AE any grade” value [2] was 1 (8) n (%). For the same molecule, the “Blood creatinine increased, AE any grade” value [2] was 0 (0) n (%), the “Constipation, AE any grade” value [2] was 1 (8) n (%) and the “Cough, AE any grade” value [2] was 0 (0) n (%). For the same molecule, the “Decreased appetite, AE any grade” value [2] was 5 (38) n (%), the “Decreased appetite, grade ≥3 AE” value [2] was 0 (0) n % and the “Diarrhea, AE any grade” value [2] was 3 (23) n (%). For the same molecule, the “Dry skin, AE any grade” value [2] was 3 (23) n (%), the “Edema peripheral, AE any grade” value [2] was 3 (23) n (%) and the “Electrocardiogram QT prolonged, AE any grade” value [2] was 1 (8) n (%). The “Fall, AE any grade” value [2] was 2 (15) n (%), the “Fatigue, AE any grade” value [2] was 2 (15) n (%) and the “Febrile neutropenia, AE any grade” value [2] was 1 (8) n (%). For the same molecule, the “Febrile neutropenia, grade ≥3 AE” value [2] was 1 (8) n %, the “Gamma-glutamyltransferase increased, AE any grade” value [2] was 2 (15) n (%) and the “Gamma-glutamyltransferase increased, grade ≥3 AE” value [2] was 0 (0) n %. The “Hypoalbuminemia, AE any grade” value [2] was 0 (0) n (%), the “Hypoalbuminemia, grade ≥3 AE” value [2] was 0 (0) n % and the “Hypophosphatemia, grade ≥3 AE” value [2] was 0 (0) n %. For the same molecule, the “Hypotension, AE any grade” value [2] was 5 (38) n (%), the “Leukopenia, AE any grade” value [2] was 1 (8) n (%) and the “Leukopenia, grade ≥3 AE” value [2] was 0 (0) n %. For the same molecule, the “Lymphocyte count decreased, AE any grade” value [2] was 1 (8) n (%), the “Lymphocyte count decreased, grade ≥3 AE” value [2] was 1 (8) n % and the “Lymphopenia, AE any grade” value [2] was 0 (0) n (%). The “Malaise, AE any grade” value [2] was 2 (15) n (%), the “Nasopharyngitis, AE any grade” value [2] was 0 (0) n (%) and the “Nausea, AE any grade” value [2] was 7 (54) n (%). For the same molecule, the “Neutropenia, AE any grade” value [2] was 8 (62) n (%), the “Neutropenia, grade ≥3 AE” value [2] was 8 (62) n % and the “Orthostatic hypotension, AE any grade” value [2] was 3 (23) n (%). For the same molecule, the “Platelet count decreased, AE any grade” value [2] was 1 (8) n (%), the “Pruritus, AE any grade” value [2] was 0 (0) n (%) and the “Pyrexia, AE any grade” value [2] was 2 (15) n (%). For the same molecule, the “Rash popular, AE any grade” value [2] was 0 (0) n (%), the “Stomatitis, AE any grade” value [2] was 1 (8) n (%) and the “Thrombocytopenia, AE any grade” value [2] was 0 (0) n (%). For the same molecule, the “Tumor pain, AE any grade” value [2] was 3 (23) n (%), the “Vomiting, AE any grade” value [2] was 7 (54) n (%) and the “White blood cell count decreased, AE any grade” value [2] was 7 (54) n (%). For the same molecule, the “White blood cell count decreased, grade ≥3 AE” value [2] was 4 (31) n %, the “Abdominal pain, AE any grade” value (Total, all schedules N = 80) was 5 (6) n (%) and the “Alopecia, AE any grade” value (Total, all schedules N = 80) was 26 (33) n (%). For the same molecule, the “Anemia, AE any grade” value (Total, all schedules N = 80) was 19 (24) n (%), the “Anemia, grade ≥3 AE” value (Total, all schedules N = 80) was 10 (13) n % and the “Arthralgia, AE any grade” value (Total, all schedules N = 80) was 6 (8) n (%). The “Blood creatinine increased, AE any grade” value (Total, all schedules N = 80) was 7 (9) n (%), the “Constipation, AE any grade” value (Total, all schedules N = 80) was 10 (13) n (%) and the “Cough, AE any grade” value (Total, all schedules N = 80) was 3 (4) n (%). The “Decreased appetite, AE any grade” value (Total, all schedules N = 80) was 23 (29) n (%), the “Decreased appetite, grade ≥3 AE” value (Total, all schedules N = 80) was 3 (4) n % and the “Diarrhea, AE any grade” value (Total, all schedules N = 80) was 15 (19) n (%). The “Dry skin, AE any grade” value (Total, all schedules N = 80) was 6 (8) n (%), the “Edema peripheral, AE any grade” value (Total, all schedules N = 80) was 10 (13) n (%) and the “Electrocardiogram QT prolonged, AE any grade” value (Total, all schedules N = 80) was 4 (5) n (%). The “Fall, AE any grade” value (Total, all schedules N = 80) was 4 (5) n (%), the “Fatigue, AE any grade” value (Total, all schedules N = 80) was 12 (15) n (%) and the “Febrile neutropenia, AE any grade” value (Total, all schedules N = 80) was 5 (6) n (%). For the same molecule, the “Febrile neutropenia, grade ≥3 AE” value (Total, all schedules N = 80) was 5 (6) n %, the “Gamma-glutamyltransferase increased, AE any grade” value (Total, all schedules N = 80) was 5 (6) n (%) and the “Gamma-glutamyltransferase increased, grade ≥3 AE” value (Total, all schedules N = 80) was 2 (3) n %. The “Hypoalbuminemia, AE any grade” value (Total, all schedules N = 80) was 6 (8) n (%), the “Hypoalbuminemia, grade ≥3 AE” value (Total, all schedules N = 80) was 2 (3) n % and the “Hypophosphatemia, grade ≥3 AE” value (Total, all schedules N = 80) was 2 (3) n %. The “Hypotension, AE any grade” value (Total, all schedules N = 80) was 11 (14) n (%), the “Leukopenia, AE any grade” value (Total, all schedules N = 80) was 19 (24) n (%) and the “Leukopenia, grade ≥3 AE” value (Total, all schedules N = 80) was 11 (14) n %. The “Lymphocyte count decreased, AE any grade” value (Total, all schedules N = 80) was 4 (5) n (%), the “Lymphocyte count decreased, grade ≥3 AE” value (Total, all schedules N = 80) was 2 (3) n % and the “Lymphopenia, AE any grade” value (Total, all schedules N = 80) was 5 (6) n (%). The “Malaise, AE any grade” value (Total, all schedules N = 80) was 11 (14) n (%), the “Nasopharyngitis, AE any grade” value (Total, all schedules N = 80) was 6 (8) n (%) and the “Nausea, AE any grade” value (Total, all schedules N = 80) was 48 (60) n (%). For the same molecule, the “Neutropenia, AE any grade” value (Total, all schedules N = 80) was 45 (56) n (%), the “Neutropenia, grade ≥3 AE” value (Total, all schedules N = 80) was 37 (46) n % and the “Orthostatic hypotension, AE any grade” value (Total, all schedules N = 80) was 4 (5) n (%). The “Platelet count decreased, AE any grade” value (Total, all schedules N = 80) was 6 (8) n (%), the “Pruritus, AE any grade” value (Total, all schedules N = 80) was 4 (5) n (%) and the “Pyrexia, AE any grade” value (Total, all schedules N = 80) was 10 (13) n (%). The “Rash popular, AE any grade” value (Total, all schedules N = 80) was 5 (6) n (%), the “Stomatitis, AE any grade” value (Total, all schedules N = 80) was 7 (9) n (%) and the “Thrombocytopenia, AE any grade” value (Total, all schedules N = 80) was 5 (6) n (%). For the same molecule, the “Tumor pain, AE any grade” value (Total, all schedules N = 80) was 8 (10) n (%), the “Vomiting, AE any grade” value (Total, all schedules N = 80) was 29 (36) n (%) and the “White blood cell count decreased, AE any grade” value (Total, all schedules N = 80) was 27 (34) n (%). The “White blood cell count decreased, grade ≥3 AE” value (Total, all schedules N = 80) was 12 (15) n %, the “Decrease in CLr (renal effects monitoring)” value (all schedules) was “no clinically relevant decrease” and the “Severity of cardiovascular events” value (all schedules) was “grade 1/2”. For the same molecule, the “Alopecia, AE” value (all schedules, N = 80) was 33%, the “Anemia, AE” value (all schedules, N = 80) was 24% and the “Anemia, grade ≥3 AE” value (all schedules, N = 80) was 13%. The “Decreased appetite, AE” value (all schedules, N = 80) was 29%, the “Febrile neutropenia, grade ≥3 AE” value (all schedules, N = 80) was 6% and the “Leukopenia, AE” value (all schedules, N = 80) was 24%. For the same molecule, the “Leukopenia, grade ≥3 AE” value (all schedules, N = 80) was 14%, the “Nausea, AE” value (all schedules, N = 80) was 60% and the “Neutropenia, AE” value (all schedules, N = 80) was 56%. The “Neutropenia, grade ≥3 AE” value (all schedules, N = 80) was 46%, the “Patients who discontinued treatment (AEs)” value (all schedules, N = 80) was 4 patients and the “Patients with AEs resulting in dose delays” value (all schedules, N = 80) was 40%. The “Patients with AEs resulting in dose holds” value (all schedules, N = 80) was 45%, the “Patients with AEs resulting in dose reductions” value (all schedules, N = 80) was 31% and the “Vomiting, AE” value (all schedules, N = 80) was 36%. The “White blood cell count decreased, AE” value (all schedules, N = 80) was 34%, the “White blood cell count decreased, grade ≥3 AE” value (all schedules, N = 80) was 15% and the “Patients reporting grade ≥3 AEs” value (all schedules, N = 80, 50 patients) was 63%. For the same molecule, the “Patients experiencing AEs” value (all schedules, N = 80, 79 patients) was 99%, the “Patients with AEs resulting in TAK-931 dose modification” value (all schedules, N = 80, Forty-nine patients) was 61% and the “Patients who discontinued treatment (AEs)” value (all schedules, N = 80, Four patients) was 5%. For the same molecule, the “Patients with ≥1 serious AE” value (all schedules, N = 80, Twenty-three patients) was 29%, the “Electrocardiogram QT prolonged, cardiovascular event” value [3] was 5% and the “Hypotension, cardiovascular event” value [3] was 14%. The “Orthostatic hypotension, cardiovascular event” value [3] was 5%, the “Decreased appetite, serious AE” value (all schedules, N = 80, n = 3) was 4% and the “Malignant ascites, serious AE” value (all schedules, N = 80, n = 3) was 4%. The “Febrile neutropenia, serious AE” value (all schedules, N = 80, n = 4) was 5% and the “Patients who died during the study” value (all schedules, Two patients, due to disease progression, neither related to TAK-931) was 3%.
